Results published in US20160108039A1, “TRIAZOLOPYRIDINES AS THROMBIN INHIBITORS FOR THE TREATMENT OF THROMBOEMBOLIC DISEASES” (BAYER PHARMA AKTIENGESELLSCHAFT, priority 2013, published 2016).

Legend:
thrombin [1] = target: T1, thrombin (Homo sapiens, UniProt P00734); test: Thrombin-inhibitory activity in plasma samples (ecarin-activated); assay type: biochemical; settings: citrate plasma, ecarin activation, fluorogenic thrombin substrate; read at about 70% of maximum signal (about 12 min); in some cases means
Procedure, shortened: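 Citrate plasma prothrombin activated by ecarin (20 mU per reaction) in Ca2+-containing Hepes buffer with compound; unstimulated controls lacked ecarin. Thrombin activity followed with fluorogenic substrate (50 μmol/l final), ex 360/em 465 nm, read every minute over 20 minutes.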

thrombin [2] = target: T1, thrombin; test: Measurement of the thrombin inhibition in buffer; assay type: biochemical; settings: human thrombin 0.06 nmol/l in Tris buffer pH 7.4, 22° C., substrate Boc-Asp(OBzl)-Pro-Arg-AMC; in some cases means of individual determinations
Procedure, shortened: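 Compound pre-incubated 15 min at 22° C with 0.06 nmol/l human thrombin in 50 mmol/l Tris, 100 mmol/l NaCl, 0.1% BSA, pH 7.4, then 5 μmol/l Boc-Asp(OBzl)-Pro-Arg-AMC added for 30 min. AMC fluorescence read at 360/460 nm against DMSO controls; IC50 from concentration–activity curves.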

COCC1COC(C)(CCO)CN1C(=O)c1cc(OC)c2nc(NCc3cccc(Cl)c3)nn2c1 (single isomer, unassigned) [Example 72, {2-[(3-Chlorobenzyl)amino]-8-methoxy[1,2,4]triazolo[1,5-a]pyridin-6-yl}[2-(2-hydroxyethyl)-5-(methoxymethyl)-2-methylmorpholin-4-yl]methanone]
IC50 (thrombin [1]): 0.034 µM | IC50 (thrombin [2]): 0.013 µM

[2H]C([2H])(C)O[C@@H]1CC(CO)N(C(=O)c2cc(OC)c3nc(NCc4cccc(Cl)c4)nn3c2)C1 (single isomer, unassigned) [Example 74]
IC50 (thrombin [1]): 0.019 µM | IC50 (thrombin [2]): 0.019 µM

COc1cc(C(=O)N2C[C@H](OCC(F)F)CC2CO)cn2nc(NCc3cccc(Cl)c3)nc12 (single isomer, unassigned) [Example 75]
IC50 (thrombin [1]): 0.074 µM | IC50 (thrombin [2]): 0.023 µM

COc1cc(C(=O)N2CC3CCN3C(=O)C2C)cn2nc(NC(CF)c3cccc(Cl)c3)nc12 (single isomer, unassigned) [Example 77, 4-[(2-{[1-(3-Chlorophenyl)-2-fluoroethyl]amino}-8-methoxy[1,2,4]triazolo[1,5-a]pyridin-6-yl)carbonyl]-3-methyl-1,4-diazabicyclo[4.2.0]octan-2-one]
IC50 (thrombin [1]): 0.0059 µM | IC50 (thrombin [2]): 0.0064 µM

COc1cc(C(=O)N2CC(C)OCC2C2CC(O)C2)cn2nc(NCc3cccc(Cl)c3)nc12 (centres unmarked) [Example 2, {2-[(3-Chlorobenzyl)amino]-8-methoxy[1,2,4]triazolo[1,5-a]pyridin-6-yl}[5-(3-hydroxycyclobutyl)-2-methylmorpholin-4-yl]methanone]
IC50 (thrombin [1]): 0.02 µM | IC50 (thrombin [2]): 0.019 µM

COc1cc(C(=O)N2CC(C)(C)OC[C@H]2CCO)cn2nc(NCc3cccc(Cl)c3)nc12 [Example 7, {2-[(3-Chlorobenzyl)amino]-8-methoxy[1,2,4]triazolo[1,5-a]pyridin-6-yl}[(5R)-5-(2-hydroxyethyl)-2,2-dimethylmorpholin-4-yl]methanone]
IC50 (thrombin [1]): 0.024 µM | IC50 (thrombin [2]): 0.02 µM

COc1cc(C(=O)N2CC(C)(C)OCC2CC(C)O)cn2nc(NCc3cccc(Cl)c3)nc12 (centres unmarked) [Example 45, {2-[(3-Chlorobenzyl)amino]-8-methoxy[1,2,4]triazolo[1,5-a]pyridin-6-yl}[5-(2-hydroxypropyl)-2,2-dimethylmorpholin-4-yl]methanone]
IC50 (thrombin [1]): 0.034 µM | IC50 (thrombin [2]): 0.033 µM

COc1cc(C(=O)N2CC(C)(CCO)OCC2CF)cn2nc(NCc3cccc(Cl)c3)nc12 (centres unmarked) [Example 50, {2-[(3-Chlorobenzyl)amino]-8-methoxy[1,2,4]triazolo[1,5-a]pyridin-6-yl}[5-(fluoromethyl)-2-(2-hydroxyethyl)-2-methylmorpholin-4-yl]methanone]
IC50 (thrombin [1]): 0.122 µM | IC50 (thrombin [2]): 0.018 µM

CCC1C(=O)N2CCC2CN1C(=O)c1cc(OC)c2nc(NCc3cccc(Cl)c3)nn2c1 (centres unmarked) [Example 58, 4-({2-[(3-Chlorobenzyl)amino]-8-methoxy[1,2,4]triazolo[1,5-a]pyridin-6-yl}carbonyl)-3-ethyl-1,4-diazabicyclo[4.2.0]octan-2-one]
IC50 (thrombin [1]): 0.039 µM | IC50 (thrombin [2]): 0.036 µM

COc1cc(C(=O)N2CC(C)CCC2CCO)cn2nc(NCc3cccc(Cl)c3)nc12 (centres unmarked) [Example 64, {2-[(3-Chlorobenzyl)amino]-8-methoxy[1,2,4]triazolo[1,5-a]pyridin-6-yl}[2-(2-hydroxyethyl)-5-methylpiperidin-1-yl]methanone]
IC50 (thrombin [1]): 0.063 µM | IC50 (thrombin [2]): 0.025 µM

COc1cc(C(=O)N2CC(C)CCC2C(N)=O)cn2nc(NCc3cccc(Cl)c3)nc12 (centres unmarked) [Example 65, 1-({2-[(3-Chlorobenzyl)amino]-8-methoxy[1,2,4]triazolo[1,5-a]pyridin-6-yl}carbonyl)-5-methylpiperidine-2-carboxamide]
IC50 (thrombin [1]): 0.102 µM | IC50 (thrombin [2]): 0.0089 µM

CC[C@@H]1COC(C)(CCO)CN1C(=O)c1cc(OC)c2nc(NCc3cccc(Cl)c3)nn2c1 (stereo partly drawn) [Example 69, {2-[(3-Chlorobenzyl)amino]-8-methoxy[1,2,4]triazolo[1,5-a]pyridin-6-yl}[(5R)-5-ethyl-2-(2-hydroxyethyl)-2-methylmorpholin-4-yl]methanone]
IC50 (thrombin [1]): 0.039 µM | IC50 (thrombin [2]): 0.025 µM

COCC1COC(C)(CCO)CN1C(=O)c1cc(OC)c2nc(NCc3cccc(Cl)c3)nn2c1 (centres unmarked) [Example 71, {2-[(3-Chlorobenzyl)amino]-8-methoxy[1,2,4]triazolo[1,5-a]pyridin-6-yl}[2-(2-hydroxyethyl)-5-(methoxymethyl)-2-methylmorpholin-4-yl]methanone]
IC50 (thrombin [1]): 0.087 µM | IC50 (thrombin [2]): 0.035 µM
